According to US20250092039A1, “GLUTARIMIDE-CONTAINING PAN-KRAS-MUTANT DEGRADER COMPOUNDS AND USES THEREOF” (Tiger Biotherapeutics Inc., priority 2022, published 2025):
Read-outs that look alike come from different tables or passages of the source.

Key:
SW620 cells = test: 3D cell growth inhibition of SW620 cells carrying endogenous KRAS G12V mutation (CellTiter-Glo 3D, GI50); type: cell-based; conditions: Homo sapiens, SW-620, 144 h, read-out: SW620 3D cell growth GI50
Procedure: The following day, the test compound was administered to the cells by using 1000× compound stock solution prepared in DMSO at various concentrations. 1000× compound stock solution was first diluted in culturing medium to 10×, then 10 μL compound medium was added to each well in the cell plates. After administration of the compound, the cells were then incubated at 37° C. for 6 days. Upon completion, the plates were equilibrated at room temperature for approximately 10 minutes. 100 μL of CellTiter-Glo® 3D Reagent (Promega) was added to each well. The plates were then incubated at room temperature for 30 minutes and luminescence was recorded by EnSpire plate reader (PerkinElmer).

KRAS G12V = KRAS G12V (Homo sapiens (Human), UniProt P01116, G12V); test: KRAS G12V degradation in SW620 cells (Western blot, DC50); type: cell-based; conditions: 24 hours
KRAS G12V, sequence (P01116-2 other isoform, or with tags, fused parts or gaps G12V): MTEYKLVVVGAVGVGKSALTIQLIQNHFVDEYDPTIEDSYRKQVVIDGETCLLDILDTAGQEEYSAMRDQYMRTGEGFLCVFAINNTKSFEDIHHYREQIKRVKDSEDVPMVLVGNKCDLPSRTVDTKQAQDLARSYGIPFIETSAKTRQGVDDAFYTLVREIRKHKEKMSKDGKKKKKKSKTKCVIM
Procedure: SW620 (KRAS G12V homozygous), AsPC1 (KRAS G12D homozygous), MIA PaCa2 (KRAS G12C homozygous), A549 (KRAS G12S homozygous) and MCF7 (KRAS WT) cells were obtained from American Type Culture Collection (ATCC). […] The following day, the test compound was administered to the cells by using 1000× compound stock solution prepared in DMSO at various concentrations. After administration of the compound, the cells were then incubated at 37° C. for 24 hours. Upon completion, the cells were washed with PBS and protein was collected in Laemmli sample buffer (1×; VWR International). Proteins in cell lysate were separated by SDS-PAGE and transferred to Odyssey nitrocellulose membranes (Licor) with iblot® dry blotting transfer system (ThermoFisher). Nonspecific binding was blocked by incubating membranes with Intercept Blocking Buffer (Licor) for 1 hour at room temperature with gentle shaking. […] After washing 3 times with TBS-T, the membranes were incubated with IRDye® 800CW goat anti-rabbit IgG (1:20,000, Licor) and IRDye® 680RD goat anti-mouse IgG (1:20,000, Licor) for 1 hour. After TBS-T washes, membranes were rinsed in TBS and Western blot images were acquired by Odyssey CLx (LI-COR Biosciences).
The signal intensity of target proteins was calculated using ImageStudio software. KRAS fluorescent intensity (FLU) from DMSO (vehicle) treatment was set as 100%. Relative KRAS expression level was determined by the following formula: […]
The percentage of KRAS expression was calculated using Microsoft Excel. The half-maximal degradation concentration (DCso) values were generated by GraphPad Prism (Version 9) using the dose-response equation of variable slope (four parameters).

KRAS-G12V/RAF1 = KRAS-G12V/RAF1 (Homo sapiens (Human), UniProt P01116, G12V); test: KRAS/RAF1 binding inhibition assay (AlphaScreen)
KRAS-G12V/RAF1, sequence (P01116-2 other isoform, or with tags, fused parts or gaps G12V): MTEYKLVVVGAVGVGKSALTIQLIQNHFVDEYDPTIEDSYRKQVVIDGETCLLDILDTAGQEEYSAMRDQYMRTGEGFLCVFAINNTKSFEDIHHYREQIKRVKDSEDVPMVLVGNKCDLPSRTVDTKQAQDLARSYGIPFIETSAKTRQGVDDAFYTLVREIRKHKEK
Procedure: Binding affinity against GTP-bound KRAS of the compounds disclosed herein was measured by monitoring the interaction of guanosine 5′-[β,γ-imido]triphosphate-bound (GppNHp-bound) KRAS with the RBD domain of RAF1 in the presence of the test compound. […] The test compounds in 2% DMSO (final concentration) at various concentrations were then added to the reaction mixture and incubated for 60 minutes at 4° C.
Raw ALphaScreen data were converted to a percentage of inhibition (relative to DMSO) using the following equations: • a) For a given test compound concentration X: […]
The IC50 values were determined by nonlinear regression of plots of [inhibitor] vs. percentage of inhibition with variable slope, analyzed using GraphPad Prism (Version 9).

Compound | GI50 (SW620 cells; SW620 cells, 6 days) [µM] | DC50 (KRAS G12V) [µM] | IC50 (KRAS-G12V/RAF1) [µM] | GI50 (SW620 cells) [µM]
CCc1c(F)ccc2cc(O)cc(-c3ncc4c(N5CCC[C@@](C)(O)C5)nc(OCC5(CN6CCC(N7CC(CN8CCN(c9ccc(C%10CCC(=O)NC%10=O)cc9)CC8)C7)CC6)CC5)nc4c3F)c12 (stereo partly drawn) [Compound 21, 3-(4-(4-((1-(1-((1-(((7-(8-ethyl-7-fluoro-3-hydroxynaphthalen-1-yl)-8-fluoro-4-((R)-3-hydroxy-3-methylpiperidin-1-yl)pyrido[4,3-d]pyrimidin-2-yl)oxy)methyl)cyclopropyl)methyl)piperidin-4-yl)azetidin-3-yl)methyl)piperazin-1-yl)phenyl)piperidine-2,6-dione] | > 0.1 | > 0.1 | – | –
C[C@@]1(O)CCCN(c2nc(OCC3(CN4CCC5(CCC(N6CCN(c7ccc8c(c7)CN([C@H]7CCC(=O)NC7=O)C8=O)CC6)CC5)CC4)CC3)nc3c(F)c(-c4cc(N)cc5ccc(F)c(F)c45)ncc23)C1 [Compound 35, (S)-3-(5-(4-(3-((1-(((7-(3-amino-7,8-difluoronaphthalen-1-yl)-8-fluoro-4-((R)-3-hydroxy-3-methylpiperidin-1-yl)pyrido[4,3-d]pyrimidin-2-yl)oxy)methyl)cyclopropyl)methyl)-3-azaspiro[5.5]undecan-9-yl)piperazin-1-yl)-1-oxoisoindolin-2-yl)piperidine-2,6-dione] | > 0.1 | > 0.1 | – | –
CCc1c(F)ccc2cc(O)cc(-c3ncc4c(N5CCC[C@@](C)(OC)C5)nc(OCC5(CN6CCC7(CC6)CC(CN6CCN(c8ccc9c(c8)CN([C@H]8CCC(=O)NC8=O)C9=O)CC6)C7)CC5)nc4c3F)c12 [Compound 36, (S)-3-(5-(4-((7-((1-(((7-(8-ethyl-7-fluoro-3-hydroxynaphthalen-1-yl)-8-fluoro-4-((R)-3-methoxy-3-methylpiperidin-1-yl)pyrido[4,3-d]pyrimidin-2-yl)oxy)methyl)cyclopropyl)methyl)-7-azaspiro[3.5]nonan-2-yl)methyl)piperazin-1-yl)-1-oxoisoindolin-2-yl)piperidine-2,6-dione] | > 0.1 | > 0.1 | – | –
CCc1c(F)ccc2cc(O)cc(-c3ncc4c(N5CCCC6(CCO6)C5)nc(OCC5(CN6CCC(CN7CC(N8CCN(c9ccc%10c(c9)CN([C@H]9CCC(=O)NC9=O)C%10=O)CC8)C7)CC6)CC5)nc4c3F)c12 (stereo partly drawn) [Compound 37, (3S)-3-(5-(4-(1-((1-((1-(((7-(8-ethyl-7-fluoro-3-hydroxynaphthalen-1-yl)-8-fluoro-4-(1-oxa-6-azaspiro[3.5]nonan-6-yl)pyrido[4,3-d]pyrimidin-2-yl)oxy)methyl)cyclopropyl)methyl)piperidin-4-yl)methyl)azetidin-3-yl)piperazin-1-yl)-1-oxoisoindolin-2-yl)piperidine-2,6-dione] | < 0.01 | 0.001 to 0.01 | – | –
CCc1c(F)ccc2cc(O)cc(-c3ncc4c(N5CCCOC6CC65)nc(OCC5(CN6CCC7(CC6)CC(CN6CCN(c8ccc9c(c8)CN([C@H]8CCC(=O)NC8=O)C9=O)CC6)C7)CC5)nc4c3F)c12 (stereo partly drawn) [Compound 165, (3S)-3-(5-(4-((7-((1-(((4-(2-oxa-6-azabicyclo[5.1.0]octan-6-yl)-7-(8-ethyl-7-fluoro-3-hydroxynaphthalen-1-yl)-8-fluoropyrido[4,3-d]pyrimidin-2-yl)oxy)methyl)cyclopropyl)methyl)-7-azaspiro[3.5]nonan-2-yl)methyl)piperazin-1-yl)-1-oxoisoindolin-2-yl)piperidine-2,6-dione] | – | 0.001 to 0.01 | – | 0.01 to 0.1
CCc1c(F)ccc2cc(O)cc(-c3ncc4c(N5CCC[C@]6(CCO6)C5)nc(OCC5(CN6CC7(CCC(N8CCN(c9cc(F)c(C%10CCC(=O)NC%10=O)c(F)c9)CC8)CC7)C6)CC5)nc4c3F)c12 (stereo partly drawn) [Compound 85, 3-(4-(4-(2-((1-(((7-(8-ethyl-7-fluoro-3-hydroxynaphthalen-1-yl)-8-fluoro-4-((S)-1-oxa-6-azaspiro[3.5]nonan-6-yl)pyrido[4,3-d]pyrimidin-2-yl)oxy)methyl)cyclopropyl)methyl)-2-azaspiro[3.5]nonan-7-yl)piperazin-1-yl)-2,6-difluorophenyl)piperidine-2,6-dione] | < 0.01 | 0.001 to 0.01 | – | –
CCc1c(F)ccc2cc(O)cc(-c3ncc4c(N5CCCC6(CC(O)C6)C5)nc(OCC5(CN6CCC7(CC6)CC(CN6CCN(c8ccc9c(c8)CN([C@H]8CCC(=O)NC8=O)C9=O)CC6)C7)CC5)nc4c3F)c12 [Compound 97, (S)-3-(5-(4-((7-((1-(((7-(8-ethyl-7-fluoro-3-hydroxynaphthalen-1-yl)-8-fluoro-4-(2-hydroxy-6-azaspiro[3.5]nonan-6-yl)pyrido[4,3-d]pyrimidin-2-yl)oxy)methyl)cyclopropyl)methyl)-7-azaspiro[3.5]nonan-2-yl)methyl)piperazin-1-yl)-1-oxoisoindolin-2-yl)piperidine-2,6-dione] | – | > 0.1 | > 0.2 | –

More lines, main results first:

GI50 (SW620 cells; SW620 cells, 6 days) [µM] | DC50 (KRAS G12V) [µM] | IC50 (KRAS-G12V/RAF1) [µM] | Compound | GI50 (SW620 cells) [µM]
< 0.01 | 0.001 to 0.01 | – | CCc1c(F)ccc2cc(O)cc(-c3ncc4c(N5CCC[C@@](C)(O)C5)nc(OCC5(CN6CC7(CC(N8CCN(c9ccc%10c(c9)CN([C@H]9CCC(=O)NC9=O)C%10=O)CC8)C7)C6)CC5)nc4c3F)c12 [Compound 122, (S)-3-(5-(4-(2-((1-(((7-(8-ethyl-7-fluoro-3-hydroxynaphthalen-1-yl)-8-fluoro-4-((R)-3-hydroxy-3-methylpiperidin-1-yl)pyrido[4,3-d]pyrimidin-2-yl)oxy)methyl)cyclopropyl)methyl)-2-azaspiro[3.3]heptan-6-yl)piperazin-1-yl)-1-oxoisoindolin-2-yl)piperidine-2,6-dione] | –
< 0.01 | < 0.001 | – | C[C@@]1(O)CCCN(c2nc(OCC3(CN4CCC5(CC4)CC(CN4CCN(c6ccc7c(c6)CN([C@H]6CCC(=O)NC6=O)C7=O)CC4)C5)CC3)nc3c(F)c(-c4cc(O)cc5ccc(F)c(Cl)c45)ncc23)C1 [Compound 157, (S)-3-(5-(4-((7-((1-(((7-(8-chloro-7-fluoro-3-hydroxynaphthalen-1-yl)-8-fluoro-4-((R)-3-hydroxy-3-methylpiperidin-1-yl)pyrido[4,3-d]pyrimidin-2-yl)oxy)methyl)cyclopropyl)methyl)-7-azaspiro[3.5]nonan-2-yl)methyl)piperazin-1-yl)-1-oxoisoindolin-2-yl)piperidine-2,6-dione] | –
< 0.01 | < 0.001 | – | C[C@@]1(O)CCCN(c2nc(OCC3(CN4CCC(CN5CCN(c6ccc7c(c6)CN([C@H]6CCC(=O)NC6=O)C7=O)CC5)CC4)CC3)nc3c(F)c(-c4cc(O)cc5ccc(F)c(Cl)c45)ncc23)C1 [Compound 156, (S)-3-(5-(4-((1-((1-(((7-(8-chloro-7-fluoro-3-hydroxynaphthalen-1-yl)-8-fluoro-4-((R)-3-hydroxy-3-methylpiperidin-1-yl)pyrido[4,3-d]pyrimidin-2-yl)oxy)methyl)cyclopropyl)methyl)piperidin-4-yl)methyl)piperazin-1-yl)-1-oxoisoindolin-2-yl)piperidine-2,6-dione] | –
< 0.01 | < 0.001 | – | CCc1c(F)ccc2cc(O)cc(-c3ncc4c(N5CCC[C@@](C)(O)C5)nc(OCC5(CN6CCC7(CC6)CC(C)(N6CCN(c8ccc9c(c8)CN(C8CCC(=O)NC8=O)C9=O)CC6)C7)CC5)nc4c3F)c12 (stereo partly drawn) [Compound 159, 3-[5-[4-[7-[[1-[[7-(8-ethyl-7-fluoro-3-hydroxy-1-naphthyl)-8-fluoro-4-[(3R)-3-hydroxy-3-methyl-1-piperidyl]pyrido[4,3-d]pyrimidin-2-yl]oxymethyl]cyclopropyl]methyl]-2-methyl-7-azaspiro[3.5]nonan-2-yl]piperazin-1-yl]-1-oxo-isoindolin-2-yl]piperidine-2,6-dione] | –
